Test results reported in patent US20230212122A1, “MITOCHONDRIAL TARGETING COMPOUNDS FOR THE TREATMENT OF ASSOCIATED DISEASES” (The Regents of the University of Michigan, priority 2020, published 2023).

Assays:
[1] = test system: MIA PaCa-2 cells; assay: MTT assay, cancer cell growth inhibition (MIA PaCa-2); format: cell-based; settings: Homo sapiens, MIA PaCa-2, 168 h, 7 days of treatment, read-out: MiaPaCa IC50
Description: (§1) Measurement of cancer cell growth inhibition of the compounds of invention Cytotoxicity of the compounds was assessed by MTT assay. In brief, MIA PaCa-2 cells or BxPc3 cells were seeded in 96-well microtitre plates at density of 200 cells/well. After overnight attachment, cells were treated with compounds at indicated concentration. After 7 days of treatment, MTT solution (3 mg/ml, 20 μl) was added to each well and cells were incubated for 3 h at 37° C. After incubation, media from each well was removed and the dark blue formazan crystals formed by live cells were dissolved in DMSO ([…] per well). The absorbance intensity was measured at 570 nm on a microplate reader (Molecular Devices, Sunnyvale, Calif., USA). The half maximal inhibitory concentration (IC50) value were calculated using 4 or 6 dots curve plotted with Cumulative Gaussian equation or Log(inhibitor) vs. response equation in GraphPad Prism.

[2] = test system: BxPc3 cells; assay: MTT assay, cancer cell growth inhibition (BxPC-3); format: cell-based; settings: Homo sapiens, BXPC-3, 168 h, 7 days of treatment
Description: as §1

| Structure (SMILES) | IC50 [1] [µM] | IC50 [2] [µM] |
| --- | --- | --- |
| CCOC(=O)[C@@H]1CCCN(S(=O)(=O)c2ccc(S(=O)(=O)N3CCCCC3)cc2)C1 [DX2-265, ethyl (R)-1-((4-(piperidin-1-ylsulfonyl)phenyl)sulfonyl)piperidine-3-carboxylate] | 2.87 ± 0.49 | 3.29 ± 0.74 |
| CCN(CC)S(=O)(=O)c1ccc(S(=O)(=O)N2CCC[C@@H](C(=O)OC3CC3)C2)cc1 [DX2-263, cyclopropyl (R)-1-((4-(N,N-diethylsulfamoyl)phenyl)sulfonyl)piperidine-3-carboxylate] | 0.3 ± 0.13 | 0.35 ± 0.06 |
| CCOC(=O)[C@@H]1CCCN(S(=N)(=O)c2ccc(S(=O)(=O)N(CC)CC)cc2)C1 (stereo partly drawn) [DX2-225, ethyl (3R)-1-(4-(N,N-diethylsulfamoyl)phenylsulfonimidoyl)piperidine-3-carboxylate] | 12.1 ± 3.85 | 13.3 ± 4.58 |
| CCOC(=O)c1cccc(S(=O)(=O)c2ccc(S(=O)(=O)N(CC)CC)cc2)c1 [DX3-3, ethyl 3-((4-(N,N-diethylsulfamoyl)phenyl)sulfonyl)benzoate] | 4.12 ± 2.44 | 2.29 ± 0.7 |
| CCOC(=O)[C@@H]1CCCN(S(=O)(=O)c2ccc(S(=O)(=O)N(CC)CC)cn2)C1 [DX2-293, ethyl (R)-1-((5-(N,N-diethylsulfamoyl)pyridin-2-yl)sulfonyl)piperidine-3-carboxylate] | 1.3 ± 0.45 | 1.37 ± 0.52 |
| CCOC(=O)[C@@H]1C[C@H](O)CN(S(=O)(=O)c2ccc(S(=O)(=O)N(CC)CC)cc2)C1 (relative stereo) [DX3-14B-P1, (cis)-ethyl 1-((4-(N,N-diethylsulfamoyl)phenyl)sulfonyl)-5-hydroxypiperidine-3-carboxylate] | 1.35 ± 0.59 | 3.29 ± 0.06 |
| CCOC(=O)[C@@H]1CCCN(S(=O)(=O)c2ccc(Oc3ccc(S(=O)(=O)N(CC)CC)cc3)cc2)C1 [DX2-230, ethyl (R)-1-((4-(4-(N,N-diethylsulfamoyl)phenoxy)phenyl)sulfonyl)piperidine-3-carboxylate] | 3.92 ± 0.89 | 3.88 ± 0.57 |
| CCN(CC)S(=O)(=O)c1ccc(S(=O)(=O)N2CCC[C@@H](C(=O)NC3COC3)C2)cc1 [DX2-242, (R)-1-((4-(N,N-diethylsulfamoyl)phenyl)sulfonyl)-N-(oxetan-3-yl)piperidine-3-carboxamide] | 2.34 ± 1.01 | 13.8 ± 3.58 |
| CCOC(=O)[C@@H]1CCCN(S(=O)(=O)c2ccc(S(=O)(=O)N(CC)CC)c(F)c2)C1 [DX2-275, ethyl (R)-1-((4-(N,N-diethylsulfamoyl)-3-fluorophenyl)sulfonyl)piperidine-3-carboxylate] | 0.93 ± 0.36 | 1.61 ± 0.37 |
| CCOC(=O)[C@H]1CCCN(S(=O)(=O)c2ccc(S(=O)(=O)N(CC)CC)cc2)C1 [DX2-202, ethyl (S)-1-((4-(N,N-diethylsulfamoyl)phenyl)sulfonyl)piperidine-3-carboxylate] | 6.08 ± 0.76 | 6.8 ± 2.1 |
| CCOC(=O)C12CC(CN(S(=O)(=O)c3ccc(S(=O)(=O)N(CC)CC)cc3)C1)C2 [DX3-115, ethyl 3-((4-(N,N-diethylsulfamoyl)phenyl)sulfonyl)-3-azabicyclo[3.1.1]heptane-1-carboxylate] | 1.04 ± 0.45 | 1.23 ± 0.79 |

Now from value to compound:

| IC50 [1] [µM] | IC50 [2] [µM] | Structure (SMILES) |
| --- | --- | --- |
| 0.94 | 3.72 | CCN(CC)S(=O)(=O)c1ccc(S(=O)(=O)N2CCC[C@@H](C(=O)N[C@@H]3CCN(C(=O)c4ccccc4)C3)C2)cc1 [DX3-125, (R)-N-((R)-1-benzoylpyrrolidin-3-yl)-1-((4-(N,N-diethylsulfamoyl)phenyl)sulfonyl)piperidine-3-carboxamide] |
| 2.55 ± 0.15 | 3.59 ± 1.39 | CCOC(=O)[C@@H]1CCCN(S(=O)(=O)c2ccc(S(=N)(=O)N(CC)CC)cc2)C1 (stereo partly drawn) [DX3-90, ethyl (3R)-1-((4-(N,N-diethylsulfamidimidoyl)phenyl)sulfonyl)piperidine-3-carboxylate] |
| 3.65 ± 1.68 | 8.27 ± 2.52 | CCN(CC)S(=O)(=O)c1ccc(S(=O)(=O)N2CCCC(F)C2)cc1 (stereo not drawn) [DX3-49B, N,N-diethyl-4-((3-fluoropiperidin-1-yl)sulfonyl)benzenesulfonamide] |
| 4.7 ± 1.92 | 6.77 ± 0.52 | CCOC(=O)C1CN(S(=O)(=O)c2ccc(S(=O)(=O)N(CC)CC)cc2)CCN1 (stereo not drawn) [DX3-44B, ethyl 4-((4-(N,N-diethylsulfamoyl)phenyl)sulfonyl)piperazine-2-carboxylate] |
| 2.94 ± 0.32 | 4.92 ± 1.94 | CCOC(=O)C1(F)CCCN(S(=O)(=O)c2ccc(S(=O)(=O)N(CC)CC)cc2)C1 (stereo not drawn) [DX3-47, ethyl 1-((4-(N,N-diethylsulfamoyl)phenyl)sulfonyl)-3-fluoropiperidine-3-carboxylate] |
| 0.13 ± 0.04 | 0.33 ± 0.12 | CCN(CC)S(=O)(=O)c1ccc(S(=O)(=O)N2CCC[C@@H](C(=O)N[C@H]3CCN(C(=O)OC(C)(C)C)C3)C2)cc1 [DX3-119, tert-butyl (S)-3-((R)-1-((4-(N,N-diethylsulfamoyl)phenyl)sulfonyl)piperidine-3-carboxamido)pyrrolidine-1-carboxylate] |
| 4.12 ± 1.16 | 2.86 ± 3.14 | CCN(CC)S(=O)(=O)c1ccc(S(=O)(=O)N2CCC[C@@H](c3nc(C)no3)C2)cc1 [DX3-122B, (R)-N,N-diethyl-4-((3-(3-methyl-1,2,4-oxadiazol-5-yl)piperidin-1-yl)sulfonyl)benzenesulfonamide] |
| 0.43 ± 0.18 | 1.1 ± 0.16 | CCN(CC)S(=O)(=O)c1ccc(S(=O)(=O)N2CCC[C@@H](C(=O)N3CC4(CN(C(=O)OC(C)(C)C)C4)C3)C2)cc1 [DX3-120, tert-butyl (R)-6-(1-((4-(N,N-diethylsulfamoyl)phenyl)sulfonyl)piperidine-3-carbonyl)-2,6-diazaspiro[3.3]heptane-2-carboxylate] |
| 5.1 ± 1.29 | 6.3 ± 1.44 | CCN(CC)S(=O)(=O)c1ccc(S(=O)(=O)N2CCCC(S(=O)(=O)N(C)C)C2)cc1 (stereo not drawn) [DX3-39, 1-((4-(N,N-diethylsulfamoyl)phenyl)sulfonyl)-N,N-dimethylpiperidine-3-sulfonamide] |
| 0.75 ± 0.08 | 2.27 ± 0.61 | CCN(CC)S(=O)(=O)c1ccc(S(=O)(=O)N2CCC[C@@H](C(=O)N[C@@H]3CCOC3)C2)cc1 [DX3-107B, (R)-1-((4-(N,N-diethylsulfamoyl)phenyl)sulfonyl)-N-((R)-tetrahydrofuran-3-yl)piperidine-3-carboxamide] |
| 0.28 | 0.62 | CCOC(=O)[C@@H]1CCCN(S(=O)(=O)c2ccc(C(=O)N(CC)CC)cc2)C1 [DX3-78B, ethyl (R)-1-((4-(diethylcarbamoyl)phenyl)sulfonyl)piperidine-3-carboxylate] |
| 0.35 ± 0.02 |  | CCN(CC)S(=O)(=O)c1ccc(S(=O)(=O)N2CCC[C@@H](C(=O)N3CCOCC3)C2)cc1 [DX3-121B, (R)-N,N-diethyl-4-((3-(morpholine-4-carbonyl)piperidin-1-yl)sulfonyl)benzenesulfonamide] |
